1 substance from patent publication US9212210B2, “Akt activity specifically inhibiting polypeptide” (Japan Science and Technology Agency, priority 2003, dated 2015) can be followed below.

For test [1], the system named is Mouse QrSP-11 fibrosarcoma cells transplanted to C57BL/6 mouse. The experiment in a line: In vivo anti-tumor effect on transplanted tumor cells. To be noted: injected directly into tumor, 2 μM 3 times a week per mouse, versus control peptide. The protocol: In vivo anti-tumor effect by 10/24 peptide with the use of the transplanted tumor cells was examined.
Mouse QrSP-11 fibrosarcoma cells was transplanted to abdominal wall of C57BL/6 mouse, and examined the inhibition ? effect on tumor growth by peptide. 10/24 peptide or control peptide was injected directly into tumor cells (2 μM was administered 3 times a week for each mouse, shown by arrows in the figure), the tumor diameters were measured and the volumes were calculated.

The target in the next test is Akt2 (Homo sapiens, UniProt P31751). The experiment in a line: Co-immunoprecipitation binding test with Akt subtype Akt2. Further details: expressed in transfected cells; host or cells: 293 cells (ATCC), calcium phosphate transfection, pCMV6 vector. Particulars: 293 cell lysate, peptide at 400 μM, anti Flag M2 immunoprecipitation, western blotting. The protocol:
(§1) Binding test between 10/24 peptide and Akt subtype molecule: Akt1, Akt2, or Akt3, was performed by using co-immunoprecipitation assay.
(§2) The cell lysate overexpressed Akt kinase in 293 cells (ATCC) i.e., Akt1, Akt2 or Akt3 in pCMV6 was expressed in 293 cells (ATCC) by using calcium phosphate method, and the overexpressed cells were harvested, lysed, and pre-treated with Protein G/A agarose mixture (50% v/v, ProG/A, Pharmacia). Akt or a control peptide (βC) was added to the cell lysate at 400 μM, inoculated with ProG/A for 3 hours at 4° C., and was added anti Flag M2 antibody (Sigma). The resultant immune precipitant was washed, and then were identified the binding to Akt kinase by western blotting (anti-HA antibody, 3F10, Boehringer Mannheim). As shown in the figure, the 10/24 peptide bound to any of the three subtypes of molecules, Akt1, Akt2, and Akt3.
Background: Immunoblotting shows a protein as a band on a membrane.

The test system of test [2] is Mouse QrSP-11 fibrosarcoma tumors of example 8. The experiment in a line: Histological examination of peptide treated mouse tumor. Type of test: in vivo. The source says:
Experimental mouse tumors of example 8 were harvested on the day 9, and histologically examined by macroscopic appearance, hematoxylin-eosin (H&E) staining (an observing method for conditions of cell nucleus and the like), TUNEL (Tdt-mediated dUTP nick end labeling, #MK500, Takara) immunostaining (a histologically identifying method for the way of the atypical death of carcinoma i.e., apoptosis), and phospho Akt (Ser 473) monoclonal antibody (a method for determining 587F11, Cell Signaling, phosphorylation of AKT kinase, and observing the activation).

In the next test the test system is T4 cell lines. The experiment in a line: Cell growth test by MTT (WST-8 reagent) assay. Type of test: cell-based, human. To be noted: T4 cell lines without stimulation, 0-50 μM, 48 hours, WST-8, absorbance at 450 nm. The protocol:
Cell growth test was performed by using MTT assay. That is, in experiments of cell growth by using WST-8 reagent [2-(2-methoxy-4-nitrophenyl)-3-(4-nitrophenyl)-5-(2,4-disulfophenyl)-2H-tetrazolium, monosodium salt]
In this method, 10/24 peptide was pre-treated at 0-50 μM concentration in cell growth test by using T4 cell lines without stimulation, 48 hours later the growth potency was measured by using WST-8 reagent assay, the absorbance at 450 nm was measured by ELISA using a microplate reader (Model 550; BioRad, Tokyo, Japan).
(Tetrazolium assays rely on reduction of a dye to a coloured formazan, in cell work by metabolically active cells.)

Another test concerns the target T1, Akt3 (Homo sapiens, UniProt Q9Y243).
T1 construct: expressed in transfected cells; host or cells: 293 cells (ATCC), calcium phosphate transfection, pCMV6 vector
The experiment in a line: Co-immunoprecipitation binding test with Akt subtype Akt3. Particulars: 293 cell lysate, peptide at 400 μM, anti Flag M2 immunoprecipitation, western blotting. The protocol:
as §1, §2

For test [3], the system named is AKT overexpressed in 293 cells. The experiment in a line: Inhibition of activation and membrane translocation of AKT in 293 cells (confocal microscope). Type of test: cell-based, human. To be noted: PDGF-AB 10 minutes, compared with control peptides. The protocol:
Inhibition effect for the activation and membrane translocation of AKT of 10/24 peptide were tested with the use of 293 cells (ATCC).
[…] of AKT was overexpressed in 293 cells (ATCC) with the use of FuGENE6 (Roche Diagnostics). Sixteen hours later the serum was eliminated, and the cells were stimulated with PDGF-AB (Sigma, #3226) for 10 minutes. The cells were fixed with 4% paraformaldehyde, stained with FITC-conjugated anti-HA antibody (12CA5, MBL) or phospho-Ser 473 antibody (587-F11, Cell Signaling), and observed under the confocal microscope (Nikon).
As shown in the FIG. 10, in the 10/24 treated cells (g-i), the inhibition of the membrane translocation and activation of AKT was identified compared with the control peptides (a-f) (around the cells glowed green or yellow as shown in d or f, while this effect was inhibited in the 10/24 peptide as shown in […] or i. See the figure). That is, from the results of the experiment, it was identified that the 10/24 peptide inhibits the activation at the same time as the translocating of AKT to the membrane in cells. AKT essentially translocates to the cell surface where it is activated, but in the 10/24 peptide treated cells, it was identified that the translocation to membrane and activation of AKT was inhibited.

The target in another test is T2, AKT kinase (unactivated) (Homo sapiens, UniProt P31749).
T2 construct: purchased Upstate Biotechnology #14-279
The experiment in a line: Lipid-protein pull down assay with PIP Beads (PI (3,4,5) P3). Type of test: binding. The protocol: Lipid-protein pull down assay was performed for 10/24 peptide of TCL1.
Lipid-protein pull down assay was performed by using PIP Beads (PI (3,4,5) P3 Echelon Bioscience Incorporated). 10/24 NH2-AVTDHPDRLWAWEKF-COOH (SEQ ID NO: 1), and βC NH2-EKQHAWLPLTIE-COOH (SEQ ID NO: 22) as a control, were used. After treatment for 2 hours at 4° C. by using 50 ng of AKT kinase (unactivated, Upstate Biotechnology, #14-279), 25 μl of PIP Beads (PI (3,4,5) P3 Echelon Bioscience Incorporated) was added, then washed with fluid containing (10 mM Hepes, pH7.4, 0.25% NP-40, 140 mM NaCl), and western blotting was performed by using Akt antibody (Cell Signaling) (FIG. 8). […] Thus, this is considered to be the inhibition mechanism for Akt activation.

Another test deals with Akt1. The experiment in a line: Co-immunoprecipitation binding test with Akt subtype Akt1. Particulars: 293 cell lysate, peptide at 400 μM, anti Flag M2 immunoprecipitation, western blotting. The protocol:
as §1, §2

Test [4] deals with human T cell leukemia cells (T4). The experiment in a line: Apoptosis of T4 cells by propidium iodide staining and FACS. Type of test: cell-based. The method, then:
The effect on apoptosis of 10/24 peptide was examined with the use of human T cell leukemia cells (T4).
10/24 peptide (NH2-AVTDHPDRLWAWEKF-COOH) (SEQ ID NO: 1) was pre-treated at 0-30 μM concentrations with the use of T4 cell lines without stimulation, 48 hours later stained with propidium iodide, and the apoptosis was determined by FACS (Beckton Dickinson). Further, to identify the AKT dependency of the anti-tumor effect, myr-AKT (constitutively activated AKT) was overexpressed.

T2 sequence (P31749 whole entry): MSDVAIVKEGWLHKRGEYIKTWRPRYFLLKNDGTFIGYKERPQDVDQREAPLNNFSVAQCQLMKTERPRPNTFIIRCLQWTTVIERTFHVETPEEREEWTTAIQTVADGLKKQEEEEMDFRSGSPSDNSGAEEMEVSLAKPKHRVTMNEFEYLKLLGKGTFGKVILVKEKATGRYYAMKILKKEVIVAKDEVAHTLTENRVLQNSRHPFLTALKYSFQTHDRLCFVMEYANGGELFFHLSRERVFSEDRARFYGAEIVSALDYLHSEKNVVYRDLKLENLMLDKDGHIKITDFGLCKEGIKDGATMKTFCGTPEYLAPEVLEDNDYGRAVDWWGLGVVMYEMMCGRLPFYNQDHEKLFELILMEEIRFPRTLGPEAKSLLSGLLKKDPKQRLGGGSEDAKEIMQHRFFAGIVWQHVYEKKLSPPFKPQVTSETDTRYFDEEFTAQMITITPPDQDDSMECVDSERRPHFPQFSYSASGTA
Chain of Akt2 (P31751 whole entry): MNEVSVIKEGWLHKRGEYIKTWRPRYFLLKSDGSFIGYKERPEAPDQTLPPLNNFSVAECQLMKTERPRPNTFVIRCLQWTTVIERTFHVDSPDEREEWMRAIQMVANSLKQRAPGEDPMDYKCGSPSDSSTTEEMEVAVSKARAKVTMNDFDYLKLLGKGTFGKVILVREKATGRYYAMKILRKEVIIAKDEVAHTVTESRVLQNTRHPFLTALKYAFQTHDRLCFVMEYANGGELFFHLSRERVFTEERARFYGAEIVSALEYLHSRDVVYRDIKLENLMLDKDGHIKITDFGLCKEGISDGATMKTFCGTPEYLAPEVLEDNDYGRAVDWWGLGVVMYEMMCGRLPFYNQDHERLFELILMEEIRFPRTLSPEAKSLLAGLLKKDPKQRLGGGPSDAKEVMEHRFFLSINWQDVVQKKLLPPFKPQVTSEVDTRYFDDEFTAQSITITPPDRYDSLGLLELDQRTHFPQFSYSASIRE
T1 sequence (Q9Y243 whole entry, species assumed): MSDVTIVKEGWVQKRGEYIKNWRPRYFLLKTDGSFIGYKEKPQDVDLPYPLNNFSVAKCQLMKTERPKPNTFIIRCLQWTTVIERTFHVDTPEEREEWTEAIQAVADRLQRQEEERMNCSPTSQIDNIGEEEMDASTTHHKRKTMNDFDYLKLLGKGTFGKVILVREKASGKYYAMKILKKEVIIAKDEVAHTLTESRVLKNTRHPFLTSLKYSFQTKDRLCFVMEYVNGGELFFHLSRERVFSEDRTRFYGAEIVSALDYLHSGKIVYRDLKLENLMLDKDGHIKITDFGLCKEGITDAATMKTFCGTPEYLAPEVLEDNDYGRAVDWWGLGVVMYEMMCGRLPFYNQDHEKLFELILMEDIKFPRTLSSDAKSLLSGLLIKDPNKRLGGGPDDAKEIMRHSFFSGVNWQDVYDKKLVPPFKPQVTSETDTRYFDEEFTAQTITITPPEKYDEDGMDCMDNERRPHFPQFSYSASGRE

For the substance “NH2-AVTDHPDRLWAWEKF-COOH (H-AVTDHPDRLWAWEKF-OH; listed as Homo sapiens) [10/24 peptide, amino acid residue 10-24 of human TCL1]”, the “tumor growth (tumor volume)” value in test [1] is recorded as “tumor growth was effectively inhibited”. The “binding to Akt2” value in the test with Akt2 is “bound”. Besides, in test [2] (tumors harvested on day 9), the “Akt activation (phospho Akt Ser 473 staining)” value was “inhibition of Akt activation”, the “apoptosis by H&E staining” value is “increased apoptosis” and the “cell apoptosis by TUNEL staining” value is “increased cell apoptosis”. Moreover, the “tumor size by macroscopic appearance” value in [2] (tumors harvested on day 9, compared to the control) was “reduction in tumor size was clearly observed”. Also, in the test with T4 cell lines, the “cell growth associated with AKT activation” value is reported as “specifically inhibits cell growth”. Further, in the test with Akt3, the “binding to Akt3” value is “bound”. In test [3] (anti-HA staining), the “membrane translocation of AKT” value was “inhibited”. Also, the “activation of AKT (phospho-Ser 473 staining)” value in [3] is reported as “inhibited”. In the test with AKT kinase (unactivated), the “mode of inhibition of the binding of Phosphoinositide (PI (3,4,5) P3) to Akt kinase” value is “competitively inhibits”. The “binding of PIP Beads (PI (3,4,5) P3) to AKT” value in the test with AKT kinase (unactivated) (1-400 μM peptide, 50 ng AKT kinase, 2 hours at 4° C., western blotting) is reported as “inhibited in a dose-dependent manner”. In the test on Akt1, the “binding to Akt1” value is on record as “bound”. Further, in test [4] (T4 cell lines without stimulation, 0-30 μM, 48 hours, compared with control peptide), the apoptosis entry is “enhance apoptosis”. In test [4] (T4 cells, AKT dependency of the effect), the “apoptosis with myr-AKT (constitutively activated AKT) overexpression” value is on record as “apoptosis was inhibited”.
